Data published in article PMC8632988, “Inhibition of SYK and cSrc kinases can protect bone and cartilage in preclinical models of osteoarthritis and rheumatoid arthritis” (Scientific Reports, 2021).
Like-named read-outs stand apart in the source and are kept apart here.

Tests used:
Test in all cases: Kinase selectivity profile assay
Assay type in all cases: biochemical
BLK = target: T1, BLK (Homo sapiens, UniProt P51451); conditions: for remaining activity at 0.5 µM: 500 nM, relative to DMSO, read-out: Residual enzymatic activity
T1 construct: purchased Reaction Biology Corporation (assay service)
Outline: (§1)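 Radiometric kinase assay run by a standard protocol. Unbound phosphate was removed by washing filters in phosphoric acid, and product radioactivity gave percent remaining kinase activity versus DMSO vehicle reactions. Run in duplicate.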

CAMKK1 = target: T2, CAMKK1 (Homo sapiens, UniProt Q8N5S9); conditions: 500 nM; relative to DMSO; read-out: Residual enzymatic activity
T2 construct: purchased Reaction Biology Corporation
Outline: as §1

CDK2/cyclin A = target: T3, CDK2/cyclin A (Homo sapiens, UniProt P24941); conditions: 500 nM; relative to DMSO; read-out: Residual enzymatic activity
T3 construct: purchased Reaction Biology Corporation
Outline: as §1

CDK4/cyclin D3 = target: T4, CDK4/cyclin D3 (Homo sapiens, UniProt P11802); conditions: 500 nM; relative to DMSO; read-out: Residual enzymatic activity
T4 construct: purchased Reaction Biology Corporation
Outline: as §1

CDK5/p25 = target: T5, CDK5/p25 (Homo sapiens, UniProt Q00535); conditions: 500 nM; relative to DMSO; read-out: Residual enzymatic activity
T5 construct: purchased Reaction Biology Corporation
Outline: as §1

CHK2 = target: T6, CHK2 (Homo sapiens, UniProt O96017); conditions: 500 nM; relative to DMSO; read-out: Residual enzymatic activity
T6 construct: purchased Reaction Biology Corporation
Outline: as §1

CK1g2 = target: T7, CK1g2 (Homo sapiens, UniProt P78368); conditions: 500 nM; relative to DMSO; read-out: Residual enzymatic activity
T7 construct: purchased Reaction Biology Corporation
Outline: as §1

CLK1 = target: T8, CLK1 (Homo sapiens, UniProt P49759); conditions: 500 nM; relative to DMSO; read-out: Residual enzymatic activity
T8 construct: purchased Reaction Biology Corporation
Outline: as §1

CSK = target: T9, CSK (Homo sapiens, UniProt P41240); conditions: for remaining activity at 0.5 µM: 500 nM, relative to DMSO, read-out: Residual enzymatic activity
T9 construct: purchased Reaction Biology Corporation (assay service)
Outline: as §1

EPHA5 = target: T10, EPHA5 (Homo sapiens, UniProt P54756); conditions: 500 nM, relative to DMSO
T10 construct: purchased Reaction Biology Corporation
Outline: as §1

EPHA6 = target: T11, EPHA6 (Homo sapiens, UniProt Q9UF33); conditions: 500 nM, relative to DMSO; for remaining activity at 0.5 µM: read-out: Residual enzymatic activity
T11 construct: purchased Reaction Biology Corporation
T11 sequence (Q9UF33 23-1036): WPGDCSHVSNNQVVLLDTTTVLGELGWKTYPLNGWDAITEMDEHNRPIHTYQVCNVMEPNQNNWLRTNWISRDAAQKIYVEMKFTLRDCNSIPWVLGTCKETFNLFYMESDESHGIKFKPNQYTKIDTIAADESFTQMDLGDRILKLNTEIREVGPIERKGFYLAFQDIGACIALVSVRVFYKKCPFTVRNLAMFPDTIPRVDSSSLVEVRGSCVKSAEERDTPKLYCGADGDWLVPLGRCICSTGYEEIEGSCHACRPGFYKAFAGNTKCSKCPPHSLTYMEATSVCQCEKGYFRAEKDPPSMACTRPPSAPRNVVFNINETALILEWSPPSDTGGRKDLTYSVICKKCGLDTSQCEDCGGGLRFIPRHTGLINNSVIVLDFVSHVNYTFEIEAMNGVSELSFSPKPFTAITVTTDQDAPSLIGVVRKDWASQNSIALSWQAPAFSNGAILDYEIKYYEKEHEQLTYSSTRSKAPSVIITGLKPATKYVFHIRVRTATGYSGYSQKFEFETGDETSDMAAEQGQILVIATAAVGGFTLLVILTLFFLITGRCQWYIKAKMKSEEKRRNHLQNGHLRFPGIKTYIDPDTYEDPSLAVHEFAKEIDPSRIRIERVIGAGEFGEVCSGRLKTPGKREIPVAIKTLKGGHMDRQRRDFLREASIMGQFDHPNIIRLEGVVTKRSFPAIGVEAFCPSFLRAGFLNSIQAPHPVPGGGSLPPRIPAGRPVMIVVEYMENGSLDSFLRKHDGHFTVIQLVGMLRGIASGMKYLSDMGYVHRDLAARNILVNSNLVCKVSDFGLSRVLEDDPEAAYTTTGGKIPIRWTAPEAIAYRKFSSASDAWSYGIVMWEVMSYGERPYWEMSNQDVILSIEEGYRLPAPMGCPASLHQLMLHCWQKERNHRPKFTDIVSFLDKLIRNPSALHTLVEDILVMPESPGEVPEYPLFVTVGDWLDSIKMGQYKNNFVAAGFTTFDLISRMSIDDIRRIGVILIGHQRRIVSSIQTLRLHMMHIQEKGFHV
Outline: as §1

ERBB4/HER4 = target: T12, ERBB4/HER4 (Homo sapiens, UniProt Q15303); conditions: 500 nM; relative to DMSO; read-out: Residual enzymatic activity
T12 construct: purchased Reaction Biology Corporation
Outline: as §1

HIPK2 = target: T13, HIPK2 (Homo sapiens, UniProt Q9H2X6); conditions: 500 nM; relative to DMSO; read-out: Residual enzymatic activity
T13 construct: purchased Reaction Biology Corporation
Outline: as §1

HIPK3 = target: T14, HIPK3 (Homo sapiens, UniProt Q9H422); conditions: 500 nM; relative to DMSO; read-out: Residual enzymatic activity
T14 construct: purchased Reaction Biology Corporation
Outline: as §1

KHS/MAP4K5 = target: T15, KHS/MAP4K5 (Homo sapiens, UniProt Q9Y4K4); conditions: 500 nM; relative to DMSO; read-out: Residual enzymatic activity
T15 construct: purchased Reaction Biology Corporation
Outline: as §1

LIMK2 = target: T16, LIMK2 (Homo sapiens, UniProt P53671); conditions: 500 nM; relative to DMSO; read-out: Residual enzymatic activity
T16 construct: purchased Reaction Biology Corporation
Outline: as §1

MELK = target: T17, MELK (Homo sapiens, UniProt Q14680); conditions: 500 nM; relative to DMSO; read-out: Residual enzymatic activity
T17 construct: purchased Reaction Biology Corporation
Outline: as §1

MST2/STK3 = target: T18, MST2/STK3 (Homo sapiens, UniProt Q13188); conditions: 500 nM; relative to DMSO; read-out: Residual enzymatic activity
T18 construct: purchased Reaction Biology Corporation
Outline: as §1

NEK3 = target: T19, NEK3 (Homo sapiens, UniProt P51956); conditions: 500 nM; relative to DMSO; read-out: Residual enzymatic activity
T19 construct: purchased Reaction Biology Corporation
Outline: as §1

P38a/MAPK14 = target: T20, P38a/MAPK14 (Homo sapiens, UniProt Q16539); conditions: 500 nM; relative to DMSO; read-out: Residual enzymatic activity
T20 construct: purchased Reaction Biology Corporation
Outline: as §1

PKAcb = target: T21, PKAcb (Homo sapiens, UniProt P22694); conditions: 500 nM; relative to DMSO; read-out: Residual enzymatic activity
T21 construct: purchased Reaction Biology Corporation
Outline: as §1

PKCzeta = target: T22, PKCzeta (Homo sapiens, UniProt Q05513); conditions: read-out: Residual enzymatic activity
T22 construct: purchased Reaction Biology Corporation
Outline: as §1

STK38L/NDR2 = target: T23, STK38L/NDR2 (Homo sapiens, UniProt Q9Y2H1); conditions: 500 nM; relative to DMSO; read-out: Residual enzymatic activity
T23 construct: purchased Reaction Biology Corporation
Outline: as §1

TYRO3/SKY = target: T24, TYRO3/SKY (Homo sapiens, UniProt Q06418); conditions: 500 nM; relative to DMSO; read-out: Residual enzymatic activity
T24 construct: purchased Reaction Biology Corporation
Outline: as §1

VRK1 = target: T25, VRK1 (Homo sapiens, UniProt Q99986); conditions: 500 nM; relative to DMSO; read-out: Residual enzymatic activity
T25 construct: purchased Reaction Biology Corporation
Outline: as §1

WNK1 = target: T26, WNK1 (Homo sapiens, UniProt Q9H4A3); conditions: 500 nM; relative to DMSO; read-out: Residual enzymatic activity
T26 construct: purchased Reaction Biology Corporation
Outline: as §1

c-MER = target: T27, c-MER (Homo sapiens, UniProt Q12866); conditions: 500 nM; relative to DMSO; read-out: Residual enzymatic activity
T27 construct: purchased Reaction Biology Corporation
Outline: as §1

[1] = 10-dose mode, threefold serial dilution from 10 μM

T1 sequence (P51451 whole entry): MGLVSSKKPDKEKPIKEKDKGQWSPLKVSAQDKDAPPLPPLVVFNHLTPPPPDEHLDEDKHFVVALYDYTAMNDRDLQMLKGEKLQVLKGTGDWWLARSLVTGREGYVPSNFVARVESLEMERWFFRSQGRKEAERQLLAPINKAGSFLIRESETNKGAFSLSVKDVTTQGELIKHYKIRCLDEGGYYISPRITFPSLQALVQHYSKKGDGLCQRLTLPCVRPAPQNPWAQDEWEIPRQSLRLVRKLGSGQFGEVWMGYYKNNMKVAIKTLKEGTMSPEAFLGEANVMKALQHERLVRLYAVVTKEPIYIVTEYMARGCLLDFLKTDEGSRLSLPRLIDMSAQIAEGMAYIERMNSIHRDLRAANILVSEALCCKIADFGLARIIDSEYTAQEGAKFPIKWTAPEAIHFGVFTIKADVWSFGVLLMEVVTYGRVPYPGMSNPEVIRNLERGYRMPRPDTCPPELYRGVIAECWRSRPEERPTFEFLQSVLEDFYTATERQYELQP
T9 sequence (P41240 whole entry): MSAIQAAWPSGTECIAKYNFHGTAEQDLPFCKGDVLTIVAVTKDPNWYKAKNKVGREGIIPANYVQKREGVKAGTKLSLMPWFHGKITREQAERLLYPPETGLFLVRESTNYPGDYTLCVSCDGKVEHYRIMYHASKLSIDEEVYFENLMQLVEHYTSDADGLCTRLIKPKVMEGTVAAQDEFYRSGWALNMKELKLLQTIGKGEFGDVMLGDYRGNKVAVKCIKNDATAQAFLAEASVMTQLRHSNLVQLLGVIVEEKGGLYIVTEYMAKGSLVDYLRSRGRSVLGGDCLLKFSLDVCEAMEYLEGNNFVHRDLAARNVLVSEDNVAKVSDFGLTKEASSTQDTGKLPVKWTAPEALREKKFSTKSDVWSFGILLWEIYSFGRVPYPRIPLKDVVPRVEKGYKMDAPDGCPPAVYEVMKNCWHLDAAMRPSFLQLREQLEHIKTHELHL
T14 sequence (Q9H422 whole entry): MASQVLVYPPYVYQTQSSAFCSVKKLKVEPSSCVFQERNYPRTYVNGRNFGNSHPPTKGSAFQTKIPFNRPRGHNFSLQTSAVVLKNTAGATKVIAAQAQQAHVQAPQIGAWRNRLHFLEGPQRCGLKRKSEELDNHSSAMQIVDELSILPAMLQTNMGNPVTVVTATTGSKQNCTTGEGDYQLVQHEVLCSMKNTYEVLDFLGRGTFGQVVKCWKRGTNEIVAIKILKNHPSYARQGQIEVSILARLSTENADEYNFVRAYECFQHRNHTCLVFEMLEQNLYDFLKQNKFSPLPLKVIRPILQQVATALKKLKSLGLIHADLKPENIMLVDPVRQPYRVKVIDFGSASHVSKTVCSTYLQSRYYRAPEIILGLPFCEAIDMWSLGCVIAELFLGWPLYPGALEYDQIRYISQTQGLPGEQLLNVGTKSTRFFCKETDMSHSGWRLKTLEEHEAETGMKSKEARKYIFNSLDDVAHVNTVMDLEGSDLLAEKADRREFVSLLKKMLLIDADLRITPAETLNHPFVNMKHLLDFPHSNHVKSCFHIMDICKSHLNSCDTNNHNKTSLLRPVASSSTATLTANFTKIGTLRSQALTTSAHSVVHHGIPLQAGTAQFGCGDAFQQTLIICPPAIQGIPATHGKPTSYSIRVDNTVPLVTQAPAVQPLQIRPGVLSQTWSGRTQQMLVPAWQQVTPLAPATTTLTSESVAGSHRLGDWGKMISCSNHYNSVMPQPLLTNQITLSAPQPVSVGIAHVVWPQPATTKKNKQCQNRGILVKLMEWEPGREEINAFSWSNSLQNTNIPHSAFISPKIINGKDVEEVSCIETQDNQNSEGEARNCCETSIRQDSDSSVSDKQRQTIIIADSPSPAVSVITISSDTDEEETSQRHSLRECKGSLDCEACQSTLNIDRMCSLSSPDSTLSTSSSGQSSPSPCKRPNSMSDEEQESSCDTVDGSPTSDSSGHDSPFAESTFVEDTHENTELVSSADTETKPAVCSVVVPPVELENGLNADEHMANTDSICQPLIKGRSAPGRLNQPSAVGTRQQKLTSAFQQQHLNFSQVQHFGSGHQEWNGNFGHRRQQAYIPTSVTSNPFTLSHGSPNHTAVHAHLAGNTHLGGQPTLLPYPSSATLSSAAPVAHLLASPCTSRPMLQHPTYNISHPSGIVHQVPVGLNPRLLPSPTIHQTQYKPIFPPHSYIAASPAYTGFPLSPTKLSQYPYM
T13 sequence (Q9H2X6 whole entry): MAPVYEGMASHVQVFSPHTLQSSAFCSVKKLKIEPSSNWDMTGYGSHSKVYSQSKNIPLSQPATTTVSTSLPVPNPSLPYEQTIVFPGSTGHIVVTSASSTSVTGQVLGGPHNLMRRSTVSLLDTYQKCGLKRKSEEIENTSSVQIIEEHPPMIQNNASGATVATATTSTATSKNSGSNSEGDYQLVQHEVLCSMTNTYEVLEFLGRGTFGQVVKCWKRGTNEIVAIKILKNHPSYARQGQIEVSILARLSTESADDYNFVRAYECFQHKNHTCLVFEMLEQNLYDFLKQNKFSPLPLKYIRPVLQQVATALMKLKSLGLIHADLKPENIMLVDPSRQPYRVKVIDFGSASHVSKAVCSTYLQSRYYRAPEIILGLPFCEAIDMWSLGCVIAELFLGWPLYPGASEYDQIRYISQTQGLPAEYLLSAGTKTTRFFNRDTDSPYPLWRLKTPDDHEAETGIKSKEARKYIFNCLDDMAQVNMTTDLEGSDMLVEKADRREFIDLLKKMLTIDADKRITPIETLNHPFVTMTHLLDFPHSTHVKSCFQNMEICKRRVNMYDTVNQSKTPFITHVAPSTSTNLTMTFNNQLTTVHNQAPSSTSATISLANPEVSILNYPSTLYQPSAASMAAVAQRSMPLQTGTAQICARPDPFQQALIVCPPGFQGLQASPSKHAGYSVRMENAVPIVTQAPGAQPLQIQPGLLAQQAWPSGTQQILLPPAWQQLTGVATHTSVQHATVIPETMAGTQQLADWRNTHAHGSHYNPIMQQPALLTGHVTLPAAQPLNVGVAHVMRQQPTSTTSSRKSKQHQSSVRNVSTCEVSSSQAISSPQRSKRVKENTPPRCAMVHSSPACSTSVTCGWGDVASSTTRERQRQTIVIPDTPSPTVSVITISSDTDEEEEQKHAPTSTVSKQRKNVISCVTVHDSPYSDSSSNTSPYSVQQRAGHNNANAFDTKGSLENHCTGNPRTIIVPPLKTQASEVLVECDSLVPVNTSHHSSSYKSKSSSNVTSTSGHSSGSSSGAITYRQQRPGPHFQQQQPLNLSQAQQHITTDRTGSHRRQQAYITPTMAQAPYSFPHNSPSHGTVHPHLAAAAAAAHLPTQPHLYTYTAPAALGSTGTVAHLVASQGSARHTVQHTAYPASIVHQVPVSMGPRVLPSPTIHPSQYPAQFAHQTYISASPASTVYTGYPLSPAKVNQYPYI
T2 sequence (Q8N5S9 whole entry): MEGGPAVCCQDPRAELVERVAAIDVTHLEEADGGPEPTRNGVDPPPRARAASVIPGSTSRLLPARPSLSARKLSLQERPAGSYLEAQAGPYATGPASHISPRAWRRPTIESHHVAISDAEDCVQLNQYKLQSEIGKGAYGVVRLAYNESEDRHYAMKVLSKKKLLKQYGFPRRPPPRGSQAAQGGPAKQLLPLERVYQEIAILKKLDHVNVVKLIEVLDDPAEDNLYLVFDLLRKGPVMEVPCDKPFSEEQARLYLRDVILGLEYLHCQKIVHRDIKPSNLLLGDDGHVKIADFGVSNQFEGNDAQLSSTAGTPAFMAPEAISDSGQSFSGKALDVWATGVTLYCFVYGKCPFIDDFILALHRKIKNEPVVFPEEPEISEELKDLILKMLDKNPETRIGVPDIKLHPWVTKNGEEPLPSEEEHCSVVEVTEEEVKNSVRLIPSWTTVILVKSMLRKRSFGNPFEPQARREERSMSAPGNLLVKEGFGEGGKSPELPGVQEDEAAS
T8 sequence (P49759 whole entry): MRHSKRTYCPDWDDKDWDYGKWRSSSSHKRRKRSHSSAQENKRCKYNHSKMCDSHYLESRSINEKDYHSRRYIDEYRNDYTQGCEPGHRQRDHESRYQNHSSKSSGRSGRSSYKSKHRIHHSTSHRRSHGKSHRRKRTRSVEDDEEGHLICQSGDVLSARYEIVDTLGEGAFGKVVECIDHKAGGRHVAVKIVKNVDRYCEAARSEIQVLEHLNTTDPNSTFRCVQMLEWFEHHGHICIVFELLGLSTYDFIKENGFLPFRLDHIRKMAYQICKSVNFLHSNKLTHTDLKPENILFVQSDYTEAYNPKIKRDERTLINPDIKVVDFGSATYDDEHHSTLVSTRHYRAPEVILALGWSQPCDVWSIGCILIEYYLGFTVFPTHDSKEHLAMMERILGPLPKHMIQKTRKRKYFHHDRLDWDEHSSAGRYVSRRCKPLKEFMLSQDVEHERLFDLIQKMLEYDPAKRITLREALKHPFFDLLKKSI
T7 sequence (P78368 whole entry): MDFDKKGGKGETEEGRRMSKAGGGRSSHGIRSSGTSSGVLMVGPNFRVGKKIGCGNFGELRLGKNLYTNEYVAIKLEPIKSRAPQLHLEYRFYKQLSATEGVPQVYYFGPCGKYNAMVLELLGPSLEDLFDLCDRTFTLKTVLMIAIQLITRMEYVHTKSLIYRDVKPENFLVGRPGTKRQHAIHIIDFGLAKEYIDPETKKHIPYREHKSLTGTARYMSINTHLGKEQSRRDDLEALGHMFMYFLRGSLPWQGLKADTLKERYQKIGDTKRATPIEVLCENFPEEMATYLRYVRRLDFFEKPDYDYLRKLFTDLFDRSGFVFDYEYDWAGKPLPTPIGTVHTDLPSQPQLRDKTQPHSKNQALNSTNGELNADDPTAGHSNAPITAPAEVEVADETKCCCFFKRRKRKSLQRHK

SMILES | remaining activity at 0.5 µM (BLK) | remaining activity at 0.5 µM (CAMKK1) | remaining activity at 0.5 µM (CDK2/cyclin A) | remaining activity at 0.5 µM (CDK4/cyclin D3) | remaining activity at 0.5 µM (CDK5/p25) | remaining activity at 0.5 µM (CHK2) | remaining activity at 0.5 µM (CK1g2) | remaining activity at 0.5 µM (CLK1) | remaining activity at 0.5 µM (CSK) | remaining activity at 0.5 µM (EPHA6) | remaining activity at 0.5 µM (ERBB4/HER4) | remaining activity at 0.5 µM (HIPK2) | remaining activity at 0.5 µM (HIPK3) | remaining activity at 0.5 µM (KHS/MAP4K5) | remaining activity at 0.5 µM (LIMK2) | remaining activity at 0.5 µM (MELK) | remaining activity at 0.5 µM (MST2/STK3) | remaining activity at 0.5 µM (NEK3) | remaining activity at 0.5 µM (P38a/MAPK14) | remaining activity at 0.5 µM (PKAcb) | other results
COc1cc(Nc2ncc(F)c(Nc3ccc4c(n3)NC(=O)C(C)(C)O4)n2)cc(OC)c1OC [R406, reference compound] | 16.7% | 91.9% | 47.6% | 99.6% | 79.4% | 50.7% | 101% | 61.7% | 20.6% | 24.9% | 68.2% | 94.9% | 96.4% | 87.1% | 77.5% | 54.7% | 97.9% | 19.2% | 99.9% | 70.1% | remaining activity at 0.5 µM (EPHA5; read-out: Residual enzymatic activity): 60.9%; remaining activity at 0.5 µM (PKCzeta): 105%; remaining activity at 0.5 µM (STK38L/NDR2): 32.1%; remaining activity at 0.5 µM (TYRO3/SKY): 94.6%; remaining activity at 0.5 µM (VRK1): 98.8%; remaining activity at 0.5 µM (WNK1): 103%; remaining activity at 0.5 µM (c-MER): 73.9%
COc1cc(Nc2ncnc(Nc3cc4c(cn3)NC(=O)C(C)(C)O4)n2)cc(OC)c1OC [MT-SYK-03] | 19.8% | 102% | 83.1% | 100% | 102% | 95% | 97.2% | 90.4% | 34.8% | > 54% | 79.4% | 103% | 110% | 91.8% | 84.9% | 86.6% | 105% | 72% | 110% | 98.4% | IC50 (BLK; [1]): 0.0096 µM; inhibition at 0.5 µM (BLK; read-out: Inhibition at 500 nM): > 90%; IC50 (CSK; [1]): 0.238 µM; Residual enzymatic activity (EPHA5): 76.4%; Residual enzymatic activity (EPHA6): 73.9%; remaining activity at 0.5 µM (PKCzeta; 500 nM, relative to DMSO): 109%; remaining activity at 0.5 µM (STK38L/NDR2): 89.6%; remaining activity at 0.5 µM (TYRO3/SKY): 104%; remaining activity at 0.5 µM (VRK1): 102%; remaining activity at 0.5 µM (WNK1): 106%; remaining activity at 0.5 µM (c-MER): 109%
